Like-named read-outs stand apart in the source and are kept apart here.
Columns and labels:
[1] = values are kred × 10^4; cited from earlier work
[2] = Partition in octanol/aqueous 5 mM phosphate-citrate-borate buffer pH 7.4, estimated from EPR amplitudes; format: physicochemical; settings: for partition coefficient (Kp): octanol/aqueous 5 mM phosphate-citrate-borate buffer pH 7.4; for partition octanol/buffer, result in words: after shaking with buffer pH 7.4
Method: Partition in octanol-water mixtures for ionizable compounds may depend on pH, and the pH changes may result from addition of the compound. Therefore, phosphate-citrate-borate buffer (5 mM, pH 7.4) was used for Kp measurements to make the partition closer to physiological conditions. […] Although monoamino derivatives 11 and 13 mainly exist in protonated form at pH 7.4, they still remain lipophilic and, therefore, should permeate cells. Amino groups are known to provide higher retention/intracellular accumulation due to transmembrane potential or ion-trapping effect. This effect was exploited in design of nitroxide contrast agents for MRI and radioprotectors. Cellular accumulation of spin labels like 11 and 13 may help to increase efficacy spin labeling using CuAAC or SPAAC.
(§1) For kinetic measurements in water, stock solutions of nitroxide, ascorbic acid and glutathione in phosphate-citrate-borate buffer (5 mM, pH 7.4) were prepared, and pH was adjusted to 7.4 with NaOH or HCl. All the solutions were deoxygenated with argon, carefully and quickly mixed in a small tube to attain final concentrations (nitroxide, 0.2–04 mM; GSH, 5 mM; and ascorbate, 100–300 mM) and were placed into an EPR capillary (50 μL). The choice of acsorbate concentration is a compromise between the low reduction rate, which requires very long experiment time and deviations of the kinetics from linearity at higher ascorbate concentrations due to ionic strength effects. Since the ascorbate oxidation is slow under these conditions, the 5 mM concentration of GSH was sufficient to suppress the reverse reaction of ascorbate radical with the hydroxylamine, because the rate of the ascorbate radical formation was low. The increase in GSH concentration produced little effect on the final reduction rate constant values. The capillary was sealed on both sides and placed into the EPR resonator. The decay of amplitude of the low-field component of the EPR spectrum was followed to obtain the kinetics. The initial part of the decay curves (up to 20 min) was used for fitting. Kinetics of the decay was fitted to a monoexponential function to calculate the first-order rate constants. Then, these constants were divided by the concentration of ascorbic acid to calculate the second-order reaction constants. Partition coefficients in a water–octanol mixture were estimated from the amplitudes of the EPR spectra of a nitroxide in water after extensive shaking with different portions of added octanol and separation using centrifugation.

[3] = Kinetics of nitroxide reduction with ascorbate in the presence of glutathione, followed by EPR; format: physicochemical; settings: ascorbate 100–300 mM, glutathione 5 mM, 5 mM phosphate-citrate-borate buffer, pH 7.4, 25 °C; values are kred × 10^4
Method: as §1

[4] = pH dependence of EPR spectra (titration), pK by fitting; format: physicochemical; settings: for pK (pH dependence of EPR spectra): amino group protonation, 5 mM phosphate-citrate-borate buffer, 25 °C; for pK, first protonation (free base to monocation): transition at high pH; for pK, first protonation (free base to monocation) / pKa, second protonation (monocation to dication): EPR titration; for pKa, second protonation (monocation to dication): transition at low pH
Method: The pH-dependences of the EPR spectra were investigated using the 0.2 mM solutions of the nitroxides in 5 mM phosphate-citrate-borate buffer on a Bruker ER-200D-SRC spectrometer in 50 µL glass capillary for 0.2 mM radical solutions. Spectrometer settings: frequency, 9.87 GHz; microwave power, 5.0 mW; modulation amplitude, 0.1 mT; time constant, 50–100 ms; and conversion time, 50.12 ms. Small portions of 0.1–1 N HCl or 0.1–1 N NaOH were added to the stirred solution of a nitroxide in buffer at 25 °C, while the pH was controlled using pH-meter. After the equilibrium was established, the samples were taken from the solution and the EPR spectra were measured. The experimental points were fitted with the Equation (1) to obtain the pKa values. (1) aN(pH)=(p1+p2×10^pK1−pH+p3×10^pK1+pK2−2×pH)/1+10^pK1−pH+10^pK1+pK2−2×pH

Solubility in water = format: physicochemical

| Compound | partition coefficient (Kp) [2] | pK (pH dependence of EPR spectra) [4] | kred × 10^4 (rate of reduction with ascorbate) [3] | other results |
| --- | --- | --- | --- | --- |
| CCC1(CC)CC(C(=O)O)C(CC)(CC)N1[O] (stereo not shown) [compound 21, 3-carboxy-2,2,5,5-tetraethylpyrrolidine-1-oxyl, reference compound] | 270 | – | – | kred × 10^4 (rate of reduction with ascorbate) [1]: 12.5 ± 0.3 [22] M^−1 s^−1 |
| CCC1(CC)C(CN=[N+]=[N-])C(CNC(=O)OC(C)(C)C)C(CC)(CC)N1[O] (stereo not shown) [compound 10, 3-(Azidomethyl)-4-((tert-butoxycarbonylamino)methyl)-2,2,5,5-tetraethylpyrrolidin-1-oxyl] | – | – | 3.0 ± 1.0 M^−1 s^−1 | – |
| CCC1(CC)C(CNC(=O)OC(C)(C)C)C(COS(C)(=O)=O)C(CC)(CC)N1[O] (stereo not shown) [compound 9, 3-(((tert-Butoxycarbonyl)amino)methyl)-2,2,5,5-tetraethyl-4-(((methylsulfonyl)oxy)methyl)pyrrolidin-1-oxyl] | – | – | 3.0 ± 1.0 M^−1 s^−1 | – |
| CCC1(CC)C(CN)C(CO)C(CC)(CC)N1[O] (stereo not shown) [compound 6, 3-(Aminomethyl)-2,2,5,5-tetraethyl-4-(hydroxymethyl)pyrrolidin-1-oxyl] | – | ca. 9 | – | – |
| CCC1(CC)C(CN=[N+]=[N-])C(CN(C)C)C(CC)(CC)N1[O] (stereo not shown) [11a, 3-(Azidomethyl)-4-((dimethylamino)methyl)-2,2,5,5-tetraethylpyrrolidin-1-oxyl] | 52 ± 5 | ca. 9 | 4.0 ± 1.0 M^−1 s^−1 | – |
| 3-(Azidomethyl)-2,2,5,5-tetraethyl-4-((trimethylammonio)methyl)-2,5-dihydro-1H-pyrrol-1-oxyl monoiodide [17b] | – | – | 16 ± 3.0 M^−1 s^−1 | partition octanol/buffer, result in words [2]: not detected in octanol |
| 3-((2,5-Dioxo-2,5-dihydro-1H-pyrrol-1-yl)methyl)-2,2,5,5-tetraethyl-4-((trimethylammonio)methyl)pyrrolidin-1-oxyl monoiodide [16a] | – | – | – | partition octanol/buffer, result in words [2]: not detected in octanol |
| CCC1(CC)C(CN=[N+]=[N-])=C(CN(C)C)C(CC)(CC)N1[O] [11b, 3-(Azidomethyl)-4-((dimethylamino)methyl)-2,2,5,5-tetraethyl-2,5-dihydro-1H-pyrrol-1-oxyl] | 15 ± 1 | ca. 9 | 15 ± 4.0 M^−1 s^−1 | – |
| CCC1(CC)C(CO)C(CNC(=O)OC(C)(C)C)C(CC)(CC)N1[O] (stereo not shown) [compound 8, 3-(((tert-Butoxycarbonyl)amino)methyl)-2,2,5,5-tetraethyl-4-(hydroxymethyl)pyrrolidin-1-oxyl] | – | – | 6.0 ± 2.0 M^−1 s^−1 | – |
| CCC1(CC)C(CN)C(CN(C)C)C(CC)(CC)N1[O] (stereo not shown) [14a, 3-(Aminomethyl)-4-((dimethylamino)methyl)-2,2,5,5-tetraethylpyrrolidin-1-oxyl] | – | – | 6.4 ± 1.0 M^−1 s^−1 | pK, first protonation (free base to monocation) [4]: ca. 11; pKa, second protonation (monocation to dication) [4]: ca. 3; pKa, second protonation (monocation to dication) ([4]; listed as N,N-dimethyl-3,4-bis-(aminomethyl)-2,2,5,5-tetraethylpyrrolidine-1-oxyl): 3 |
| 3-(Azidomethyl)-2,2,5,5-tetraethyl-4-((trimethylammonio)methyl)pyrrolidin-1-oxyl monoiodide [17a] | – | – | 3.0 ± 1.0 M^−1 s^−1 | partition octanol/buffer, result in words [2]: not detected in octanol |
| CCC1(CC)C(CO)=C(CO)C(CC)(CC)N1[O] [compound 22, 2,2,5,5-tetraethyl-3,4-bis(hydroxymethyl)-2,5-dihydro-1H-pyrrol-1-oxyl, reference compound] | 37 ± 2 | – | 3.4 ± 0.1 M^−1 s^−1 | – |
| CCC1(CC)C(CO)C(CO)C(CC)(CC)N1[O] (stereo not shown) [compound 1, 3,4-bis-hydroxymethyl-2,2,5,5-tetraethylpyrrolidine-1-oxyl] | 41 ± 2 | – | – | kred × 10^4 (rate of reduction with ascorbate) [1]: 3.3 ± 0.8 [26] M^−1 s^−1 |
| CCC1(CC)C(CO)C(CN2C(=O)C=CC2=O)C(CC)(CC)N1[O] (stereo not shown) [compound 7, 3-((2,5-Dioxo-2,5-dihydro-1H-pyrrol-1-yl)methyl)-2,2,5,5-tetraethyl-4-(hydroxymethyl)pyrrolidin-1-oxyl] | 84 ± 2 | – | – | solubility in water (Solubility in water): poorly soluble in water |
| 3-((2,5-Dioxo-2,5-dihydro-1H-pyrrol-1-yl)methyl)-2,2,5,5-tetraethyl-4-((trimethylammonio)methyl)-2,5-dihydro-1H-pyrrol-1-oxyl monoiodide [16b] | – | – | – | partition octanol/buffer, result in words [2]: not detected in octanol |
| CCC1(CC)C(CO)C(CN=[N+]=[N-])C(CC)(CC)N1[O] (stereo not shown) [compound 5, 3-(Azidomethyl)-2,2,5,5-tetraethyl-4-(hydroxymethyl)pyrrolidin-1-oxyl] | – | – | – | solubility in water (Solubility in water): poorly soluble in water |
| CCC1(CC)C(CN=[N+]=[N-])C(Cn2nnc(C(=O)[O-])c2C(=O)O)C(CC)(CC)N1[O].[Na+] (stereo not shown) [compound 20, 3-(Azidomethyl)-4-((4,5-dicarboxy-1H-1,2,3-triazol-1-yl)methyl)-2,2,5,5-tetraethylpyrrolidin-1-oxyl monosodium salt] | – | – | 5.9 ± 1.2 M^−1 s^−1 | partition octanol/buffer, result in words [2]: not detected in octanol |

More lines, main results first:

| partition coefficient (Kp) [2] | pK (pH dependence of EPR spectra) [4] | Compound | kred × 10^4 (rate of reduction with ascorbate) [3] | other results |
| --- | --- | --- | --- | --- |
| 350 ± 35 | ca. 9 | CCC1(CC)C(CN)C(CN=[N+]=[N-])C(CC)(CC)N1[O] (stereo not shown) [13a, 3-(Aminomethyl)-4-(azidomethyl)-2,2,5,5-tetraethylpyrrolidin-1-oxyl] | 6.3 ± 0.9 M^−1 s^−1 | – |
| – | ca. 9 | CCC1(CC)C(CN(C)C)=C(CN2C(=O)C=CC2=O)C(CC)(CC)N1[O] [15b, 3-((Dimethylamino)methyl)-4-((2,5-dioxo-2,5-dihydro-1H-pyrrol-1-yl)methyl)-2,2,5,5-tetraethyl-2,5-dihydro-1H-pyrrol-1-oxyl] | – | – |
| – | ca. 9 | CCC1(CC)C(CN(C)C)C(CN2C(=O)C=CC2=O)C(CC)(CC)N1[O] (stereo not shown) [15a, 3-((Dimethylamino)methyl)-4-((2,5-dioxo-2,5-dihydro-1H-pyrrol-1-yl)methyl)-2,2,5,5-tetraethylpyrrolidin-1-oxyl] | – | – |
| 7 ± 0.3 | – | CCC1(CC)C(CN)=C(CN(C)C)C(CC)(CC)N1[O] [14b, 3-(Aminomethyl)-4-((dimethylamino)methyl)-2,2,5,5-tetraethyl-2,5-dihydro-1H-pyrrol-1-oxyl] | 8 ± 1.0 M^−1 s^−1 | pK, first protonation (free base to monocation) [4]: ca. 11; pKa, second protonation (monocation to dication) [4]: ca. 3 |
| 45 ± 2 | ca. 9 | CCC1(CC)C(CN)=C(CN=[N+]=[N-])C(CC)(CC)N1[O] [13b, 3-(Aminomethyl)-4-(azidomethyl)-2,2,5,5-tetraethyl-2,5-dihydro-1H-pyrrol-1-oxyl] | 7.6 ± 0.3 M^−1 s^−1 | – |

Reference: article PMC10855552, “Hydrophilic Reduction-Resistant Spin Labels of Pyrrolidine and Pyrroline Series from 3,4-Bis-hydroxymethyl-2,2,5,5-tetraethylpyrrolidine-1-oxyl” (International Journal of Molecular Sciences, 2024)
